Results on 14 compounds are retold here after patent publication US20260193264A1, “BENZOYPARAZINE PYRAZINES AND THEIR USES” (FOGHORN THERAPEUTICS INC., priority 2022, published 2026).

Test [1] deals with T1, HiBit-BRG1 fusion protein in stable HeLa cell line expressing HiBit-BRG1 and LgBit (Homo sapiens, UniProt P51532).
T1 construct: expressed in transfected cells
Briefly: HiBiT-BRG1 cell-based degradation assay (Nano-Glo HiBiT, 24 h). To be noted: HeLa HiBit-BRG1/LgBit cells; for DC50: read-out: BRMG1 HiBit Degradation IC50; for Dmax: top dose 30 μM, read-out: BRG1 HiBit Degradation Maximum (%). The method, boiled down:
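Stable HeLa line co-expressing HiBiT-BRG1 and LgBiT, compound-treated 24 h; luminescence read after Nano-Glo HiBiT lytic reagent. % degradation normalised between DMSO (high control) and 2 μM reference BRM/BRG1 degrader (low control).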

Test [2] deals with T2, HiBiT-BRM fusion protein in stable HeLa cell line (Homo sapiens, UniProt P51531).
T2 construct: expressed in transfected cells
Put plainly: HiBiT-BRM cell-based degradation assay (Nano-Glo HiBiT Lytic Detection, 24 h). Details: DC50: scale not given here. Conditions: HeLa HiBiT-BRM cells; for DC50: read-out: BRM HiBit Degradation IC50; for BRM HiBit Degradation Maximum (%): top dose 30 μM. The method, boiled down:
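Stable HiBiT-BRM HeLa cells treated 24 h with 10-point 3-fold dilutions, top final dose 30 μM, in duplicate. Luminescence read after lytic LgBiT reagent. Percent degradation was normalised to DMSO (high control) and 2 μM reference BRM/BRG1 degrader (low control).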
Background: HiBiT is a short tag that completes a luciferase, so light tracks the accessible tagged protein.

T1 sequence (P51532 whole entry, the tested form may be a part): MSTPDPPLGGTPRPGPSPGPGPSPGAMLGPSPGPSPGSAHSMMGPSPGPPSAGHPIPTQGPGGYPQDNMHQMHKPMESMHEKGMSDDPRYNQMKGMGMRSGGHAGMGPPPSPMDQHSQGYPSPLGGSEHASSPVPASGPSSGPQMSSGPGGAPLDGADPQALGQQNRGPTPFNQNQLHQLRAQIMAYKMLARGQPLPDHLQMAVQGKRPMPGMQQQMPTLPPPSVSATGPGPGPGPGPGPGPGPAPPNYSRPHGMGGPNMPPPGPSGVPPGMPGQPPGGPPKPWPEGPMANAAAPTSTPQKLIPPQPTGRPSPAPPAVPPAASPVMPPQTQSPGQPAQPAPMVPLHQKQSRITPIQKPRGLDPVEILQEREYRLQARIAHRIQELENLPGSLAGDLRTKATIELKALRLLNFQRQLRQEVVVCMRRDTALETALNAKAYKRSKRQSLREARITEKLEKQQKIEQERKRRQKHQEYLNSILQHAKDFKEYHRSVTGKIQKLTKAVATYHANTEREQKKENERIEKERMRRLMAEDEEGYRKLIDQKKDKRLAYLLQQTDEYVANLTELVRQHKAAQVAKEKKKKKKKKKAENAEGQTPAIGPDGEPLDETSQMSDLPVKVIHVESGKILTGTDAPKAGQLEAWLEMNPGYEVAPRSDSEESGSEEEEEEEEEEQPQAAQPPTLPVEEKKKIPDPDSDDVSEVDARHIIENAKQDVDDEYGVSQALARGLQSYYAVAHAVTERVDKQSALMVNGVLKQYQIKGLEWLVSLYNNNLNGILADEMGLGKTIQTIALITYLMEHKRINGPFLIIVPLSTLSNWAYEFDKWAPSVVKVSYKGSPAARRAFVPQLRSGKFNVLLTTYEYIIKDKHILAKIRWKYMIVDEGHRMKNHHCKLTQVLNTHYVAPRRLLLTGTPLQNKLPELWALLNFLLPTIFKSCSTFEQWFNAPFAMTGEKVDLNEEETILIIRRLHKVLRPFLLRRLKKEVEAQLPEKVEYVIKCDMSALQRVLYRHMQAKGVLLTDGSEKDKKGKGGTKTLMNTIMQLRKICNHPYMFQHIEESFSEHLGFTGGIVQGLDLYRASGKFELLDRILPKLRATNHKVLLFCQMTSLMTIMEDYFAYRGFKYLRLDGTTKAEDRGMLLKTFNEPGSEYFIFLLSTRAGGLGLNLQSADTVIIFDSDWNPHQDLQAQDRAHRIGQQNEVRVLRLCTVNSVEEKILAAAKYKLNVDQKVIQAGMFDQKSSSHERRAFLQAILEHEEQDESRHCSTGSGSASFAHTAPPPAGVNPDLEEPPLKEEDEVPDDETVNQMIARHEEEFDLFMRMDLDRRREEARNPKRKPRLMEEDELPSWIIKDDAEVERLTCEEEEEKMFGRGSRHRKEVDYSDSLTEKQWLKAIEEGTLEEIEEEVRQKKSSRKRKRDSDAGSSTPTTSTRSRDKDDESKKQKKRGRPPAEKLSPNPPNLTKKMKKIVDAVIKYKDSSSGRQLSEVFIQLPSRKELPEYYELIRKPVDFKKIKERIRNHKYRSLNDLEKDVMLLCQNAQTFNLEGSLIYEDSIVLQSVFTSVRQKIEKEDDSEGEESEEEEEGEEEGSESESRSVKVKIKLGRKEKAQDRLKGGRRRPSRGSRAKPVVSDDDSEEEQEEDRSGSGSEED
T2 sequence (P51531 whole entry, the tested form may be a part): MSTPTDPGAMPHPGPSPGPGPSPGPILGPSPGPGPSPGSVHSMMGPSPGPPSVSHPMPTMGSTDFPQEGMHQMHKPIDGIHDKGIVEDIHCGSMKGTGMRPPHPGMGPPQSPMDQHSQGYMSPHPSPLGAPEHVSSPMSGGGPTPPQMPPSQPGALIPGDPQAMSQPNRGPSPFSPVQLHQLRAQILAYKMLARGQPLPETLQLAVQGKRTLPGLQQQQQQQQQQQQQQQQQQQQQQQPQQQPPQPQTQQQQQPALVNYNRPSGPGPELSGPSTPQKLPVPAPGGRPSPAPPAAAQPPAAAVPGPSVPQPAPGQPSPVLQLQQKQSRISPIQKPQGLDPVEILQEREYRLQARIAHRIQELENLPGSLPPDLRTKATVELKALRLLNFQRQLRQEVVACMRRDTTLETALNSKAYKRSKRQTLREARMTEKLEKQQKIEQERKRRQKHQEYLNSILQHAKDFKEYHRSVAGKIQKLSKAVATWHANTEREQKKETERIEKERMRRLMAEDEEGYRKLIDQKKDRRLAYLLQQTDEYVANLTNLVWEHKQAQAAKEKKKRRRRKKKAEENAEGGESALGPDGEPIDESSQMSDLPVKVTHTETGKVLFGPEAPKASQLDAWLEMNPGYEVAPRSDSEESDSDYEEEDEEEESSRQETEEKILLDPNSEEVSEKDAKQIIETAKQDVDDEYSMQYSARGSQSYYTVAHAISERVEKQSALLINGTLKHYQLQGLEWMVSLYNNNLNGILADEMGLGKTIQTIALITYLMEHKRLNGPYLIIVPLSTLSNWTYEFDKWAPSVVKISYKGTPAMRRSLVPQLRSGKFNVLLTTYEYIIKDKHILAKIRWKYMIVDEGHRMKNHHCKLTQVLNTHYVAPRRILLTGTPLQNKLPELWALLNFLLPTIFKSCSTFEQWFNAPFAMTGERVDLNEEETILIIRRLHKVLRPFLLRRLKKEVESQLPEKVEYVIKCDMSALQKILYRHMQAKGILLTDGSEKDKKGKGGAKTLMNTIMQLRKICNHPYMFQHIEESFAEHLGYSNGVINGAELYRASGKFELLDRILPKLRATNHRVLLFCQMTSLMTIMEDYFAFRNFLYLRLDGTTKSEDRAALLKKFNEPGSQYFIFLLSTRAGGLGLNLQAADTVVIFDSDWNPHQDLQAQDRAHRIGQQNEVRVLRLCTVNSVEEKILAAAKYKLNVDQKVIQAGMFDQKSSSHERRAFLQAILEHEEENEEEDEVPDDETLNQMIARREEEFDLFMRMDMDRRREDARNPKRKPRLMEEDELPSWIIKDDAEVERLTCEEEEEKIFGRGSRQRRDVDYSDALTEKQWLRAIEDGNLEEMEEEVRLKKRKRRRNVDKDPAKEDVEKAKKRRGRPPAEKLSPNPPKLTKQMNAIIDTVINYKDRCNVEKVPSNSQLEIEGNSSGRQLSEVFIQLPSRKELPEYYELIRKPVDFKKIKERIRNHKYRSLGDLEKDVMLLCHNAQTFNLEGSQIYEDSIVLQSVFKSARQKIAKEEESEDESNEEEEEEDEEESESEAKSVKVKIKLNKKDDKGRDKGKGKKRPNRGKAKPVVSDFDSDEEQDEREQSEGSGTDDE

With `COc1cc2cc(-c3ccccc3O)nnc2cc1CN1CC[C@H](N2CCN(c3cc([C@H](C(=O)N4C[C@H](O)C[C@H]4C(=O)N[C@@H](C)c4ccc(-c5scnc5C)cc4)C(C)C)on3)CC2)C(F)(F)C1` [Compound 219, (2S,4R)-1-((R)-2-(3-(4-((S)-3,3-difluoro-1-((3-(2-hydroxyphenyl)-6-methoxycinnolin-7-yl)methyl)piperidin-4-yl)piperazin-1-yl)isoxazol-5-yl)-3-methylbutanoyl)-4-hydroxy-N-((S)-1-(4-(4-methylthiazol-5-yl)phenyl)ethyl)pyrrolidine-2-carboxamide], in test [1], the DC50 was more than 10 nM and the Dmax was more than 75%. In test [2], the DC50 is less than 10 nM and the “BRM HiBit Degradation Maximum (%)” value is given as “A (“A” indicates maximum degradation ≥75%)”.

`Cc1ncsc1-c1ccc([C@H](C)NC(=O)[C@@H]2C[C@@H](O)CN2C(=O)[C@@H](c2cc(N3CCC(C(=O)N4CC(c5ccc6nnc(-c7ccccc7O)cc6c5)C4)CC3)no2)C(C)C)cc1` [Compound 7, (2S,4R)-4-hydroxy-1-((R)-2-(3-(4-(3-(3-(2-hydroxyphenyl)cinnolin-6-yl)azetidine-1-carbonyl)piperidin-1-yl)isoxazol-5-yl)-3-methylbutanoyl)-N-((S)-1-(4-(4-methylthiazol-5-yl)phenyl)ethyl)pyrrolidine-2-carboxamide]: in test [1], the DC50 was more than 100 nM and the Dmax is more than 50%. In test [2], the DC50 was more than 10 nM and the “BRM HiBit Degradation Maximum (%)” value is recorded as “A (“A” indicates maximum degradation ≥75%)”.

On to `CC(C)C(C(=O)N1C[C@H](O)C[C@H]1C(=O)N[C@@H](C)c1ccc(Cl)cc1)c1cc(N2CC3(CN(c4ccc5cc(-c6ccccc6O)nnc5c4)C3)C2)no1` (stereo partly drawn) [Compound 113, (2S,4R)-N-((S)-1-(4-chlorophenyl)ethyl)-4-hydroxy-1-(2-(3-(6-(3-(2-hydroxyphenyl)cinnolin-7-yl)-2,6-diazaspiro[3.3]heptan-2-yl)isoxazol-5-yl)-3-methylbutanoyl)pyrrolidine-2-carboxamide], for which the Dmax in test [1] is less than 50%. In addition, in test [2], the DC50 was less than 10 nM and the “BRM HiBit Degradation Maximum (%)” value was “A (“A” indicates maximum degradation ≥75%)”.

`Cc1ncsc1-c1ccc([C@H](C)NC(=O)[C@@H]2C[C@@H](O)CN2C(=O)[C@@H](c2cc(N3CCN4CCN(c5ccc6nnc(-c7ccccc7O)cc6c5)CC4C3)no2)C(C)C)cc1` (stereo partly drawn) [Compound 151, (2S,4R)-4-hydroxy-1-((2R)-2-(3-(8-(3-(2-hydroxyphenyl)cinnolin-6-yl)octahydro-2H-pyrazino[1,2-a]pyrazin-2-yl)isoxazol-5-yl)-3-methylbutanoyl)-N-((S)-1-(4-(4-methylthiazol-5-yl)phenyl)ethyl)pyrrolidine-2-carboxamide]: the Dmax in test [1] was less than 50%. Also, in test [2], the DC50 is less than 10 nM and the “BRM HiBit Degradation Maximum (%)” value is given as “A (“A” indicates maximum degradation ≥75%)”.

Turning to `Cc1ncsc1-c1ccc([C@H](C)NC(=O)[C@@H]2C[C@@H](O)CN2C(=O)[C@@H](c2cc(-c3cnc(N4CC5(CC(c6ccc7cc(-c8ccccc8O)nnc7c6)C5)C4)nc3)no2)C(C)C)cc1` [Compound 18], in test [1], the DC50 was more than 10 nM and the Dmax is more than 50%. Also, in test [2], the DC50 was less than 10 nM and the “BRM HiBit Degradation Maximum (%)” value is “A (“A” indicates maximum degradation ≥75%)”.

`C#Cc1ccc(CNC(=O)[C@@H]2C[C@@H](O)CN2C(=O)[C@H](C(C)C)n2cc(N3CC4(CN(c5ccc6cc(-c7ccccc7O)nnc6c5)C4)C3)nn2)cc1` [Compound 255, (2S,4R)-N-(4-ethynylbenzyl)-4-hydroxy-1-((S)-2-(4-(6-(3-(2-hydroxyphenyl)cinnolin-7-yl)-2,6-diazaspiro[3.3]heptan-2-yl)-1H-1,2,3-triazol-1-yl)-3-methylbutanoyl)pyrrolidine-2-carboxamide]: the Dmax in test [1] is less than 50%. Further, in test [2], the DC50 was less than 10 nM and the “BRM HiBit Degradation Maximum (%)” value was “A (“A” indicates maximum degradation ≥75%)”.

Regarding `COC[C@H]1CN(c2cc([C@H](C(=O)N3C[C@H](O)C[C@H]3C(=O)N[C@@H](C)c3ccc(-c4scnc4C)cc3)C(C)C)on2)CCN1c1ccc2nnc(-c3ccccc3O)cc2c1` [Compound 138, (2S,4R)-4-hydroxy-1-((R)-2-(3-((R)-4-(3-(2-hydroxyphenyl)cinnolin-6-yl)-3-(methoxymethyl)piperazin-1-yl)isoxazol-5-yl)-3-methylbutanoyl)-N-((S)-1-(4-(4-methylthiazol-5-yl)phenyl)ethyl)pyrrolidine-2-carboxamide], in test [1], the DC50 was more than 10 nM and the Dmax is more than 75%. In test [2], the DC50 is less than 10 nM and the “BRM HiBit Degradation Maximum (%)” value is “A (“A” indicates maximum degradation ≥75%)”.

For `Cc1ncsc1-c1ccc([C@H](C)NC(=O)[C@@H]2C[C@@H](O)CN2C(=O)[C@H](C(C)C)n2cc(N3CC4(CN(c5ccc6nnc(-c7ccccc7O)cc6c5)CCO4)C3)nn2)cc1` [Compound 189, (2S,4R)-4-hydroxy-1-((S)-2-(4-(8-(3-(2-hydroxyphenyl)cinnolin-6-yl)-5-oxa-2,8-diazaspiro[3.5]nonan-2-yl)-1H-1,2,3-triazol-1-yl)-3-methylbutanoyl)-N-((S)-1-(4-(4-methylthiazol-5-yl)phenyl)ethyl)pyrrolidine-2-carboxamide], the Dmax in test [1] is less than 50%. Also, in test [2], the DC50 was less than 10 nM and the “BRM HiBit Degradation Maximum (%)” value is “A (“A” indicates maximum degradation ≥75%)”.

On to `CNC(=O)[C@@H]1C[C@@H](O)CN1C(=O)C(c1cc(N2CC3(CN(c4ccc5cc(-c6ccccc6O)nnc5c4)C3)C2)no1)C(C)C` (stereo partly drawn) [Compound 114, (2S,4R)-4-hydroxy-1-(2-(3-(6-(3-(2-hydroxyphenyl)cinnolin-7-yl)-2,6-diazaspiro[3.3]heptan-2-yl)isoxazol-5-yl)-3-methylbutanoyl)-N-methylpyrrolidine-2-carboxamide], for which the Dmax in test [1] is less than 50%. In test [2], the DC50 was less than 10 nM and the “BRM HiBit Degradation Maximum (%)” value was “A (“A” indicates maximum degradation ≥75%)”.

Take `Cc1ncsc1-c1ccc([C@H](C)NC(=O)[C@@H]2C[C@@H](O)CN2C(=O)[C@@H](c2cc(N3CC4(C3)CN(c3cc5cc(-c6ccccc6O)nnc5cc3C(F)F)C4)no2)C(C)C)cc1` [Compound 164, (2S,4R)-1-((R)-2-(3-(6-(7-(difluoromethyl)-3-(2-hydroxyphenyl)cinnolin-6-yl)-2,6-diazaspiro[3.3]heptan-2-yl)isoxazol-5-yl)-3-methylbutanoyl)-4-hydroxy-N-((S)-1-(4-(4-methylthiazol-5-yl)phenyl)ethyl)pyrrolidine-2-carboxamide]: in test [1], the DC50 is less than 10 nM and the Dmax is more than 75%. Also, in test [2], the DC50 was less than 10 nM and the “BRM HiBit Degradation Maximum (%)” value is “A (“A” indicates maximum degradation ≥75%)”.

`CC(C)[C@@H](C(=O)N1C[C@H](O)C[C@H]1C(=O)N[C@@H](C)c1ccccc1)c1cc(N2CC[C@@H](c3ccc4cc(-c5ccccc5O)nnc4c3)C2)no1` [Compound 116, (2S,4R)-4-hydroxy-1-((R)-2-(3-((S)-3-(3-(2-hydroxyphenyl)cinnolin-7-yl)pyrrolidin-1-yl)isoxazol-5-yl)-3-methylbutanoyl)-N-((S)-1-phenylethyl)pyrrolidine-2-carboxamide]: the Dmax in test [1] is less than 50%. In test [2], the DC50 was less than 10 nM and the “BRM HiBit Degradation Maximum (%)” value is recorded as “A (“A” indicates maximum degradation ≥75%)”.

Regarding `CC(C)[C@@H](C(=O)N1C[C@H](O)C[C@H]1C(=O)N[C@@H](C)c1ccccc1)c1cc(N2CC[C@H](c3ccc4cc(-c5ccccc5O)nnc4c3)C2)no1` [Compound 118, (2S,4R)-4-hydroxy-1-((R)-2-(3-((R)-3-(3-(2-hydroxyphenyl)cinnolin-7-yl)pyrrolidin-1-yl)isoxazol-5-yl)-3-methylbutanoyl)-N-((S)-1-phenylethyl)pyrrolidine-2-carboxamide], the Dmax in test [1] is less than 50%. In addition, in test [2], the DC50 was more than 10 nM and the “BRM HiBit Degradation Maximum (%)” value is on record as “A (“A” indicates maximum degradation ≥75%)”.

On to `Cc1ncsc1-c1ccc([C@H](C)NC(=O)[C@@H]2C[C@@H](O)CN2C(=O)[C@@H](c2cc(-c3cnc(N4CC(c5cc6nnc(-c7ccccc7O)cc6cc5Cl)C4)nc3)no2)C(C)C)cc1` [Compound 32], for which, in test [1], the Dmax is less than 50%. Also, in test [2], the DC50 is more than 10 nM and the “BRM HiBit Degradation Maximum (%)” value is reported as “B (“B” indicates maximum degradation ≥50%)”.

As for `CC(C)[C@@H](C(=O)N1C[C@H](O)C[C@H]1C(=O)N[C@@H](C)c1ccc(F)cc1)c1cc(N2CC3(C2)CN(c2cc4nnc(-c5ccccc5O)cc4cc2C#N)C3)no1` [Compound 217, (2S,4R)-1-((R)-2-(3-(6-(6-cyano-3-(2-hydroxyphenyl)cinnolin-7-yl)-2,6-diazaspiro[3.3]heptan-2-yl)isoxazol-5-yl)-3-methylbutanoyl)-N-((S)-1-(4-fluorophenyl)ethyl)-4-hydroxypyrrolidine-2-carboxamide], the Dmax in test [1] was less than 50%. Besides, in test [2], the DC50 was less than 10 nM and the “BRM HiBit Degradation Maximum (%)” value is reported as “A (“A” indicates maximum degradation ≥75%)”.
